# Where a SMILES comes first, the peptide text is derived from it.
# Legend:
# [1] = test system: human immunodeficiency virus (HIV); test: HIV-induced cell fusion: RH9 cells mixed with HIV-infected lymphoblasts; format: cell-based; conditions: for activity as inhibitor of HIV-induced cell fusion: RH9 + HIV-infected cells; for Polykaryocytes Mean Diameter / Polykaryocytes Per mm^2: RH9 + HIV-RH9
# Method: (§1) The commercially available peptides, carbobenzoxy-D- Phe-L-Phe-Gly (z-PPG) and Phe-Gly-Gly-Phe (PGGP) were obtained from Sigma Chemical Company, St. Louis, MO in granular form. Stock solutions were prepared to 20 mg/ml in dimethyl sulfoxide and stored at 0° C. A line of uninfected human lymphoblasts, RH9, and a line of lymphoblasts persistently infected with human immunodeficiency virus (HIV) were obtained from Dr. Robert Garry of Tulane Medical Center, New Orleans, La. and grown in RPMI medium containing 10% fetal calf serum obtained from Gibco, Grand Island, N.Y.
# In the experimental protocol, RH9 cells are pretreated with various concentrations of either z-PPG or PGGP by adding a small aliquot of the peptide/DMSO solution to a suspension culture. After 1 hour, a suspension culture containing one-half the number of HIV-infected cells are added to the RH9-peptide mixture. The mixture is then incubated at 37° C. for 18 hours, and examined periodically for induction of cell fusion in the cell mixture.
# uninfected RH9 cells = test system: uninfected RH9 cells
# Method: as §1
# To test this further incubated cultures of either uninfected RH9 cells, or HIV-infected carrier cultures, were incubated with PGGP for four days.
compound,measurement,setting,value
z-Phe-Gly [reference compound],activity as inhibitor of HIV-induced cell fusion,[1],no demonstrable activity
carbobenzoxy-D- Phe-L-Phe-Gly [z-PPG],Polykaryocytes Mean Diameter,[1]; 0.08 M peptide,51 um
same,Polykaryocytes Per mm^2,[1]; 0.08 M peptide,105 per mm^2
same,Polykaryocytes Mean Diameter,[1]; 0.25 M peptide,37 um
same,Polykaryocytes Per mm^2,[1]; 0.25 M peptide,59 per mm^2
same,Polykaryocytes Mean Diameter,[1]; 0.8 M peptide,26 um
same,Polykaryocytes Per mm^2,[1]; 0.8 M peptide,4 per mm^2
same,"inhibition of fusion (phase photomicrographs, FIG. 1)","[1]; approximtely 1 mM peptide, 1 hour pretreatment of RH9, 18 hours at 37° C.",almost complete inhibition of fusion
same,minimal inhibitory dose,"[1]; inhibition of cell fusion under these experimental conditions, 18 hours",0.3 mM
"N[C@@H](Cc1ccccc1)C(=O)NCC(=O)NCC(=O)N[C@@H](Cc1ccccc1)C(=O)O [PGGP, Phe-Gly-Gly-Phe] (H-FGGF-OH)","effect on rate of growth, final cell density or cell viability",uninfected RH9 cells,no significant effect
"z-Phe-Leu [x-Phe-Leu, reference compound]",activity as inhibitor of HIV-induced cell fusion,[1],no demonstrable activity
same,activity as inhibitor of HIV-induced cell fusion,[1]; listed as z-Phe-Leu,ineffective
